Patent US8969248B2, “5-iodotriazole derivatives” (Bayer Intellectual Property GmbH, priority 2010, dated 2015)

Experiments:
Assay type in all cases: in vivo
[1] = test system: Blumeria graminis f. sp. hordei; assay: Blumeria graminis test (barley)/protective; conditions: protective spray, 500 ppm, evaluation 7 days after inoculation
Description: [table] To produce an appropriate active ingredient formulation, 1 part by weight of active ingredient is mixed with the specified amounts of solvent and emulsifier, and the concentrate is diluted with water to the desired concentration. To test for protective activity, young plants are sprayed with the active ingredient formulation at the stated application rate. After the spray coating has dried on, the plants are dusted with spores of Blumeria graminis f. sp. hordei.

[2] = test system: Botrytis cinerea; assay: Botrytis test (bean)/protective; conditions: protective spray, 250 ppm, evaluation 2 days after inoculation
Description: [table] To produce an appropriate active ingredient formulation, 1 part by weight of active ingredient is mixed with the specified amounts of solvent and emulsifier, and the concentrate is diluted with water to the desired concentration. To test for protective activity, young plants are sprayed with the active ingredient formulation at the stated application rate. After the spray coating has dried on, 2 small pieces of agar colonized by Botrytis cinerea are placed onto each leaf.

[3] = test system: Fusarium graminearum; conditions: barley, protective spray, 500 ppm, evaluation 5 days after inoculation
[4] = test system: Leptosphaeria nodorum; assay: Leptosphaeria nodorum test (wheat)/protective; conditions: protective spray, 500 ppm, evaluation 8 days after inoculation
Description: [table] To produce an appropriate active ingredient formulation, 1 part by weight of active ingredient is mixed with the specified amounts of solvent and emulsifier, and the concentrate is diluted with water to the desired concentration. To test for protective activity, young plants are sprayed with the active ingredient formulation at the stated application rate. After the spray coating has dried on, the plants are sprayed with spores with a spore suspension of Leptosphaeria nodorum.

[5] = test system: Puccinia recondita; assay: Puccinia test (wheat)/protective; conditions: protective spray, 500 ppm, evaluation 7-9 days after inoculation
[6] = test system: Pyrenophora teres; assay: Pyrenophora teres test (barley)/protective; conditions: protective spray, 500 ppm, evaluation 8 days after inoculation
Description: [table] To produce an appropriate active ingredient formulation, 1 part by weight of active ingredient is mixed with the specified amounts of solvent and emulsifier, and the concentrate is diluted with water to the desired concentration. To test for protective activity, young plants are sprayed with the active ingredient formulation at the stated application rate. After the spray coating has dried on, the plants are sprayed with a spore suspension of Pyrenophora teres.

[7] = test system: Septoria tritici; assay: Septoria tritici test (wheat)/protective; conditions: protective spray, 500 ppm, evaluation 21 days after inoculation
[8] = test system: Sphaerotheca fuliginea; assay: Sphaerotheca test (cucumber)/protective; conditions: protective spray, 500 ppm, evaluation 7 days after inoculation
Description: [table] To produce an appropriate active ingredient formulation, 1 part by weight of active ingredient is mixed with the specified amounts of solvent and emulsifier, and the concentrate is diluted with water to the desired concentration. To test for protective activity, young cucumber plants are sprayed with the active ingredient formulation at the stated application rate. 1 day after the treatment, the plants are inoculated with a spore suspension of Sphaerotheca fuliginea. The plants are then placed in a greenhouse at 70% relative air humidity and a temperature of 23° C.

[9] = test system: Uromyces appendiculatus; assay: Uromyces test (bean)/protective; conditions: protective spray, 100 ppm, evaluation 10 days after inoculation
Description: (§1) [table] To produce an appropriate active ingredient formulation, 1 part by weight of active ingredient is mixed with the specified amounts of solvent and emulsifier, and the concentrate is diluted with water to the desired concentration. To test for protective activity, young plants are sprayed with the active ingredient formulation at the stated application rate. […] The plants are then placed in a greenhouse at approx. 21° C. and a relative air humidity of approx. 90%.

[10] = test system: Venturia inaequalis; assay: Venturia test (apple)/protective; conditions: protective spray, 100 ppm, evaluation 10 days after inoculation
Description: as §1

[11] = test system: Pyricularia oryzae; conditions: rice, protective spray, 250 ppm, evaluation 5 days after inoculation
[12] = test system: Cochliobolus miyabeanus; assay: Cochliobolus test (rice)/protective; conditions: protective spray, 250 ppm, evaluation 4 days after inoculation
[13] = test system: Phakopsora pachyrhizi; assay: Phakopsora test (soya beans)/protective; conditions: protective spray, 100 ppm, evaluation 1 days after inoculation (so in the source)
[14] = test system: Fusarium culmorum; assay: Fusarium test (wheat)/seed treatment; conditions: dose 50 g/dt (rate 100 [sic]), 14 days at 20° C., counting emerged plants
Description: The test was conducted under greenhouse conditions. Wheat seeds treated with an inventive active compound or a combination of inventive active compounds were sown in 6×6 cm vessels, into a mixture of steamed field soil and sand (1:1). The test compound(s) were dissolved in N-methyl-2-pyrrolidone and diluted to the desired concentration with water. Wheat kernels were inoculated with spores of Fusarium culmorum. The infected and ground kernels were distributed between the treated wheat seeds. The seeds were covered with a top layer of clay granules and incubated in a greenhouse at 20° C. for 14 days. Evaluation was effected by counting the plants which emerged. 0% means an efficacy which corresponds to that of the untreated control, whereas an efficacy of 100% means that all seeds have germinated. In this test, the following inventive compounds show an efficiency of 70% or higher at a dose of 50 g/dt.: […]

[15] = test system: Microdochium nivale; assay: Microdochium test (wheat)/seed treatment; conditions: dose 50 g/dt (rate 100 [sic]), 21 days at 10° C., counting emerged plants
Description: The test was conducted under greenhouse conditions. Wheat seeds treated with an inventive active compound or a combination of inventive active compounds were sown in 6×6 cm vessels, into a mixture of steamed field soil and sand (1:1). The test compound(s) were dissolved in N-methyl-2-pyrrolidone and diluted to the desired concentration with water. Wheat kernels were inoculated with spores of Microdochium nivale. The infected and ground kernels were distributed between the treated wheat seeds. The seeds were covered with a top layer of steamed field soil and sand (1:1) and incubated in a greenhouse at 10° C. for 21 days. […] In this test, the following inventive compounds show an efficiency of 70% or higher at a dose of 50 g/dt.

[16] = test system: Puccinia recondita; assay: Puccinia test (wheat)/seed treatment; conditions: dose 50 g/dt (rate 100 [sic]), inoculated 14 days after sowing, evaluated 9 days later, infected leaf area
Description: The test was conducted under greenhouse conditions. Wheat seeds treated with an inventive active compound or a combination of inventive active compounds were sown in 6×6 cm vessels, into a mixture of steamed field soil and sand (1:1). The test compound(s) were dissolved in N-methyl-2-pyrrolidone and diluted to the desired concentration with water. The wheat grains treated were sown and placed in a greenhouse at 10° C. 14 days after sowing, the plants were inoculated with a spore suspension of Puccinia recondita. The plants were incubated at 20° C. for a further 9 days. […] In this test, the following inventive compounds show an efficiency of 70% or higher at a dose of 50 g/dt: […]

[17] = test system: Leptosphaeria maculans; assay: Leptosphaeria test (oilseed rape)/seed treatment; conditions: dose 50 g/dt (rate 100 [sic]), 14 days at 10° C. and 7 days at 18° C., counting emerged plants
Description: The test was conducted under greenhouse conditions. […] treated with an inventive active compound or a combination of inventive active compounds were sown in 6×6 cm vessels, into a mixture of steamed field soil and sand (1:1). The test compound(s) were dissolved in N-methyl-2-pyrrolidone and diluted to the desired concentration with water. Perlite was inoculated with spores of Leptosphaeria maculans. The infected perlite was distributed between the treated […]. The seeds were covered with a top layer of steamed field soil and sand (1:1) and incubated in a greenhouse at 10° C. for 14 days and at 18° C. for 7 days. […] In this test, the following inventive compounds show an efficiency of 70% or higher at a dose of 50 g/dt.: […]

[18] = test system: Rhizoctonia solani; assay: Rhizoctonia test (cotton)/seed treatment; conditions: dose 50 g/dt (rate 100 [sic]), 7 days at 20° C., counting emerged and diseased plants
Description: The test was conducted under greenhouse conditions. Cottonseeds treated with an inventive active compound or a combination of inventive active compounds were sown in 6×6 cm vessels, into a mixture of steamed field soil and sand (1:1). The test compound(s) were dissolved in N-methyl-2-pyrrolidone and diluted to the desired concentration with water. Perlite was inoculated with spores of Rhizoctonia solani. The infected perlite was distributed between the treated cottonseeds. The seeds were covered with a top layer of clay granules and incubated in a greenhouse at 20° C. for 7 days. […] In this test, the following inventive compounds show an efficiency of 70% or higher at a dose of 50 g/dt: […]

For OC(Cc1ccccc1Cl)(Cn1ncnc1I)C1(Cl)CC1 (stereo not drawn) [Compound 3], the “Efficacy (%)” value [1] was 100%, the “Efficacy (%)” value [2] was 100% and the “Efficacy (%)” value [3] was 100%. For the same molecule, the “Efficacy (%)” value [4] was 100%, the “Efficacy (%)” value [5] was 100% and the “Efficacy (%)” value [6] was 100%. For the same molecule, the “Efficacy (%)” value [7] was 88%, the “Efficacy (%)” value [8] was 100% and the “Efficacy (%)” value [9] was 100%. The “Efficacy (%)” value [10] was 100%, the “Efficacy (%)” value [11] was 94% and the efficacy [12] was at least 98%. The “Efficacy (%)” value [13] was 98%, the “Efficacy (%)” value [14] was 100% and the “Efficacy (%)” value [15] was 100%. The “Efficacy (%)” value [16] was 100%, the “Efficacy (%)” value [17] was 100% and the “Efficacy (%)” value [18] was 100%.
